Reference: the kinase profiling compilation of Christmann-Franck et al. (2016)

Assays:
Test in all cases: radiometric filter-binding kinase assay
[1] = target: BTK (human) (UniProt Q06187)
[2] = target: CDK2 CCNA2 (human) (UniProt P20248+P24941)
[3] = target: CHEK1 (human) (UniProt O14757)
[4] = target: CSNK2A1 (human) (UniProt P68400)
[5] = target: DAPK1 (human) (UniProt P53355)
[6] = target: EEF2K (human) (UniProt O00418)
[7] = target: EPHA4 (human) (UniProt P54764)
[8] = target: EPHB1 (human) (UniProt P54762)
[9] = target: EPHB4 (human) (UniProt P54760)
[10] = target: GCK (human) (UniProt Q12851)
[11] = target: IKBKB (human) (UniProt O14920)
[12] = target: INSRR (human) (UniProt P14616)
[13] = target: MAP2K1 (human) (UniProt Q02750)
[14] = target: MAP2K2 (human) (UniProt P36507)
[15] = target: MAP3K5 (human) (UniProt Q99683)
[16] = target: MAP3K9 (human) (UniProt P80192)
[17] = target: MAPK9 (human) (UniProt P45984)
[18] = target: MAPKAPK2 (human) (UniProt P49137)
[19] = target: MARK3 (human) (UniProt P27448)
[20] = target: MARK4 (human) (UniProt Q96L34)
[21] = target: MKNK2 (human) (UniProt Q9HBH9)
[22] = target: MYLK (human) (UniProt Q15746)
[23] = target: NEK6 (human) (UniProt Q9HC98)
[24] = tested on: PAK2 (human), Q13177 [T402E]
[25] = target: PAK6 (human) (UniProt Q9NQU5)
[26] = target: PIM1 (human) (UniProt P11309)
[27] = target: PIM2 (human) (UniProt Q9P1W9)
[28] = target: PIM3 (human) (UniProt Q86V86)
[29] = target: PKN2 (human) (UniProt Q16513)
[30] = target: RPS6KA5 KD1 KD2 (human) (UniProt O75582)
[31] = tested on: RPS6KB1 (human), P23443 [T412E]
[32] = target: SRPK1 (human) (UniProt Q96SB4)
[33] = target: STK3 (human) (UniProt Q13188)
[34] = target: TBK1 (human) (UniProt Q9UHD2)
[35] = target: TTK (human) (UniProt P33981)
[36] = target: YES1 (human) (UniProt P07947)

Chain of SRPK1 (human) (Q96SB4 whole entry, looked up): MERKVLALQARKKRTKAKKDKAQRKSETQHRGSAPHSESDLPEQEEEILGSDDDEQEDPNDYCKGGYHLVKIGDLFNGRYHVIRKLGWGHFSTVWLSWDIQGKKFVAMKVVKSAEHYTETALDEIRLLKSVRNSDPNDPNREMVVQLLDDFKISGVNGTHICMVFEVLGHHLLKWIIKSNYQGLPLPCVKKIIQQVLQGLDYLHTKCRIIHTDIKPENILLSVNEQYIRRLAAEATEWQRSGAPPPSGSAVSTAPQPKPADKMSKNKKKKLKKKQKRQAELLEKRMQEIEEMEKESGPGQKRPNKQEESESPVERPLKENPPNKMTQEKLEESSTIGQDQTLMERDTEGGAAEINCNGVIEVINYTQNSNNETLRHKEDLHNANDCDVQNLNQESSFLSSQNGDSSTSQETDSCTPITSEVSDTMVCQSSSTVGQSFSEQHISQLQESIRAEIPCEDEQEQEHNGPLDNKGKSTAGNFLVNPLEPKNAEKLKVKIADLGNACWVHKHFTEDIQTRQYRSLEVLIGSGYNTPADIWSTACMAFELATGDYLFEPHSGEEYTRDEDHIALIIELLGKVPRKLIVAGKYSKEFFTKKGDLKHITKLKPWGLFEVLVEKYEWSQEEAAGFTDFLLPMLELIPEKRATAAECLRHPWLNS
Chain of PIM2 (human) (Q9P1W9 whole entry, looked up): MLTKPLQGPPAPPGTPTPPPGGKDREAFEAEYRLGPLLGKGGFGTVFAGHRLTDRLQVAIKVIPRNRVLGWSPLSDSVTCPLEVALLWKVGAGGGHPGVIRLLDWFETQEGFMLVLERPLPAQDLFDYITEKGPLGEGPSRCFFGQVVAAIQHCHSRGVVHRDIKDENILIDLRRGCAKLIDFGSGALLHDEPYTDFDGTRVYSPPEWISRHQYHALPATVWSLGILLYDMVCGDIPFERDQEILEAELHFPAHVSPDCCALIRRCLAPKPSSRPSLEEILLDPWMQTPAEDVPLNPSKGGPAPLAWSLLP
Chain of GCK (human) (Q12851 whole entry, looked up): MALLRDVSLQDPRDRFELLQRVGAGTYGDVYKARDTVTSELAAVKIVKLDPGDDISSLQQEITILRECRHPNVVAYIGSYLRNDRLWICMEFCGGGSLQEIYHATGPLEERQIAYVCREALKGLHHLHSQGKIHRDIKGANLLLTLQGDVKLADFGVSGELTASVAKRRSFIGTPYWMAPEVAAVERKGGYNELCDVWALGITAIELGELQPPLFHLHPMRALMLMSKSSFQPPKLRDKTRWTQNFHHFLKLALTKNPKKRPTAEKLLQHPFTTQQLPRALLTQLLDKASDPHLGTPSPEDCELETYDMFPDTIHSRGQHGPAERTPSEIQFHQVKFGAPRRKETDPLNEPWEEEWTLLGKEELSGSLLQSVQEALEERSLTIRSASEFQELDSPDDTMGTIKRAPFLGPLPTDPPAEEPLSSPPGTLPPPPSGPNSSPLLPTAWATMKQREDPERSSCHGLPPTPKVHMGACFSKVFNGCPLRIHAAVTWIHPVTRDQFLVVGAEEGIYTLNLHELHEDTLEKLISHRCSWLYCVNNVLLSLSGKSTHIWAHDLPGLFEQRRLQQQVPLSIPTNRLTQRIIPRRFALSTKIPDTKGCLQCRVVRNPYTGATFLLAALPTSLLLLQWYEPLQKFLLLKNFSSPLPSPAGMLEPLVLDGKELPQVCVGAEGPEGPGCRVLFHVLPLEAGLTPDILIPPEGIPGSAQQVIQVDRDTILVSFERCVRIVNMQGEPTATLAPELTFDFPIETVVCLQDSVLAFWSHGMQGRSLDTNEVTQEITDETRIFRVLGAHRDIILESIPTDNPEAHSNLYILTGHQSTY
Chain of PAK2 (human), Q13177 [T402E] (Q13177 whole entry T402E, looked up): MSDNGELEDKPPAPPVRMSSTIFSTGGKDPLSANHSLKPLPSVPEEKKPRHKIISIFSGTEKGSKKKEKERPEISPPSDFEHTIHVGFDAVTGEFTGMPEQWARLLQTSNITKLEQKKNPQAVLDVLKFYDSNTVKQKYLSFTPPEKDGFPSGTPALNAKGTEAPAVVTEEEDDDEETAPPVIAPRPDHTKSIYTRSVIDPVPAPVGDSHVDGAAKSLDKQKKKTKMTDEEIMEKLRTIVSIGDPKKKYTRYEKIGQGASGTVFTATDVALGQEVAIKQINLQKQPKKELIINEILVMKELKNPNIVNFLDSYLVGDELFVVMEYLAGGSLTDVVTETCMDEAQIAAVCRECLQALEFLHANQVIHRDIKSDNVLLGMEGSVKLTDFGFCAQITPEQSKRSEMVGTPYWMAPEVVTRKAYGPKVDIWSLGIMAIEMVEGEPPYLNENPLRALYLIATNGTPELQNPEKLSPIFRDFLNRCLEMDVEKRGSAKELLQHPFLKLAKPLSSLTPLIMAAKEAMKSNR
Chain of MYLK (human) (Q15746 whole entry, looked up): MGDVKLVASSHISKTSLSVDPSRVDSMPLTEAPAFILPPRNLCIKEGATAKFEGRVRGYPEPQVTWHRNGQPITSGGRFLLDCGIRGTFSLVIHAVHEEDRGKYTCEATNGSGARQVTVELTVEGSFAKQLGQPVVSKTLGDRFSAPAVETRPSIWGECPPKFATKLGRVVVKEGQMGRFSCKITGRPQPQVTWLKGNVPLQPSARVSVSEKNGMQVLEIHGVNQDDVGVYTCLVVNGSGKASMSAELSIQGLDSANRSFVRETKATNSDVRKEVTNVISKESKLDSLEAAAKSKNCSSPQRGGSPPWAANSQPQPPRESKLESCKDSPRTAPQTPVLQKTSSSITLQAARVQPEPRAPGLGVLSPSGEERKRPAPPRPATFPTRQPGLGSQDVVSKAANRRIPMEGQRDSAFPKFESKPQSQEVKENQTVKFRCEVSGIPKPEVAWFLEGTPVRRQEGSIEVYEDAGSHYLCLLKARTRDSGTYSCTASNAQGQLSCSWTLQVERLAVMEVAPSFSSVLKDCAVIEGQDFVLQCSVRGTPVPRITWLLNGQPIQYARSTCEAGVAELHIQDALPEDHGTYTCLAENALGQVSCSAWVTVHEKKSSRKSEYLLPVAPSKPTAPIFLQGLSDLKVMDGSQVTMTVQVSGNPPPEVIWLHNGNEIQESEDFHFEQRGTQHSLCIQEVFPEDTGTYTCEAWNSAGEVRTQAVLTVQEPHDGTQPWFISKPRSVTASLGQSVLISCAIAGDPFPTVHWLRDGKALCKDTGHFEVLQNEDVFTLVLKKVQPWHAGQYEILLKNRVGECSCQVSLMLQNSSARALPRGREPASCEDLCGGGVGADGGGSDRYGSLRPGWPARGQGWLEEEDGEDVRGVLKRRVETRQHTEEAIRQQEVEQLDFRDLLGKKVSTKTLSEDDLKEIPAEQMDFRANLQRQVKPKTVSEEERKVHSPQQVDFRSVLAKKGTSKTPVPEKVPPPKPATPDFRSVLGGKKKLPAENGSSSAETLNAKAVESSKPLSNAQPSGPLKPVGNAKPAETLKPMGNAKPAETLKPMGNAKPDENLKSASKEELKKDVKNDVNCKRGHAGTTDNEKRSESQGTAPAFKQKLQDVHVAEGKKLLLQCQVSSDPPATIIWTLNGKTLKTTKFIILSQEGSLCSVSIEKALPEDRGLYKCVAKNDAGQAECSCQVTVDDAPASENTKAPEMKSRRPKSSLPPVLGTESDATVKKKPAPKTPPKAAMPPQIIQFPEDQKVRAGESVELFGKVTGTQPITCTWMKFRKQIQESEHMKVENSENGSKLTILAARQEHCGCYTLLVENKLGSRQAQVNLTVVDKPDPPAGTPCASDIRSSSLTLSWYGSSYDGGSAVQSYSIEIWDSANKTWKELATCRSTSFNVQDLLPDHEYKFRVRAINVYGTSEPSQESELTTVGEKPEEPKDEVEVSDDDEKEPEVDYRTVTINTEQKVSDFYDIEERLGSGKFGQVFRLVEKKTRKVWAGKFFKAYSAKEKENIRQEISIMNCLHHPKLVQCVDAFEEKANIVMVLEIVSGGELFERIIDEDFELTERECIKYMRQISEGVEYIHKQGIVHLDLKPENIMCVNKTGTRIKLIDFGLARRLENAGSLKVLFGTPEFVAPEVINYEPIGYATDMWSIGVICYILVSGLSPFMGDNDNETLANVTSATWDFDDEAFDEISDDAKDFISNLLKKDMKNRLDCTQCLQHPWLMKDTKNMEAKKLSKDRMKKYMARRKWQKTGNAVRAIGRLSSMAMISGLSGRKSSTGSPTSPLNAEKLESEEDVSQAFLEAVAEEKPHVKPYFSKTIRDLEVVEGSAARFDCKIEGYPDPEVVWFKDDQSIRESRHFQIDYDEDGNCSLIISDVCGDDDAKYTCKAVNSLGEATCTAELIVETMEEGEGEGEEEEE
Chain of STK3 (human) (Q13188 whole entry, looked up): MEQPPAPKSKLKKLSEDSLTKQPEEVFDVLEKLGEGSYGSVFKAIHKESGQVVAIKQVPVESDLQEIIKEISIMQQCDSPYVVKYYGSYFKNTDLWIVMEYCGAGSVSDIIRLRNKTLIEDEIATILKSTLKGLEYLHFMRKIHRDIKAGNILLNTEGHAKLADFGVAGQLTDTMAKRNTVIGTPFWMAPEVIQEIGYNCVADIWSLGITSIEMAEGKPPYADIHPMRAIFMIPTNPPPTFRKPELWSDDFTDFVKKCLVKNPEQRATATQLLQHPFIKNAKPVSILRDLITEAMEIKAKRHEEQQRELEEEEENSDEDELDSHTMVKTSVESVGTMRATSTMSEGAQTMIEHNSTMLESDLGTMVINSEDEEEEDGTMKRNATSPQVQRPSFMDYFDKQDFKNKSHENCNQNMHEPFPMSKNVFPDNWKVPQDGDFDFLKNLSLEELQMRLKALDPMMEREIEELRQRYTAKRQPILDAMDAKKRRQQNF
Chain of NEK6 (human) (Q9HC98 whole entry, looked up): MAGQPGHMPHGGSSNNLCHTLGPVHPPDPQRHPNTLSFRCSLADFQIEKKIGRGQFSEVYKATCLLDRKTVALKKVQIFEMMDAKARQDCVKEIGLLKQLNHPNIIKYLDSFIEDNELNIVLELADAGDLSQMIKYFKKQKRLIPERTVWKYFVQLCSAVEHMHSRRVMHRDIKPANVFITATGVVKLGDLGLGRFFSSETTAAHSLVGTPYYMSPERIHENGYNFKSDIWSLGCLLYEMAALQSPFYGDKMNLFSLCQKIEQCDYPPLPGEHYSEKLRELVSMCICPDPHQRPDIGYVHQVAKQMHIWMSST

CNC(=O)C1[C@H]2O[C@@](C)([C@@H]1N)n1c3ccccc3c3c4c(c5c6ccccc6n2c5c31)C(=O)NC4 (some centres not stated)
residual activity ([1]; compound 0.01 µM): 49%
residual activity ([1]; compound 0.1 µM): 11%
residual activity ([1]; compound 1.0 µM): 9%
residual activity ([2]; compound 0.01 µM): 18%
residual activity ([2]; compound 0.1 µM): 9%
residual activity ([2]; compound 1.0 µM): 8%
residual activity ([3]; compound 0.01 µM): 11%
residual activity ([3]; compound 0.1 µM): 4%
residual activity ([3]; compound 1.0 µM): 3%
residual activity ([4]; compound 0.01 µM): 106%
residual activity ([4]; compound 0.1 µM): 108%
residual activity ([4]; compound 1.0 µM): 80%
residual activity ([5]; compound 0.01 µM): 51%
residual activity ([5]; compound 0.1 µM): 18%
residual activity ([5]; compound 1.0 µM): 4%
residual activity ([6]; compound 0.01 µM): 105%
residual activity ([6]; compound 0.1 µM): 97%
residual activity ([6]; compound 1.0 µM): 79%
residual activity ([7]; compound 0.01 µM): 95%
residual activity ([7]; compound 0.1 µM): 61%
residual activity ([7]; compound 1.0 µM): 16%
residual activity ([8]; compound 0.01 µM): 41%
residual activity ([8]; compound 0.1 µM): 56%
residual activity ([8]; compound 1.0 µM): 25%
residual activity ([9]; compound 0.01 µM): 102%
residual activity ([9]; compound 0.1 µM): 60%
residual activity ([9]; compound 1.0 µM): 8%
residual activity ([10]; compound 0.01 µM): 6%
residual activity ([10]; compound 0.1 µM): 4%
residual activity ([10]; compound 1.0 µM): 2%
residual activity ([11]; compound 0.01 µM): 75%
residual activity ([11]; compound 0.1 µM): 24%
residual activity ([11]; compound 1.0 µM): 6%
residual activity ([12]; compound 0.01 µM): 47%
residual activity ([12]; compound 0.1 µM): 12%
residual activity ([12]; compound 1.0 µM): 9%
residual activity ([13]; compound 0.01 µM): 9%
residual activity ([13]; compound 0.1 µM): 0%
residual activity ([13]; compound 1.0 µM): 0%
residual activity ([14]; compound 0.01 µM): 32%
residual activity ([14]; compound 0.1 µM): 17%
residual activity ([14]; compound 1.0 µM): 14%
residual activity ([15]; compound 0.01 µM): 113%
residual activity ([15]; compound 0.1 µM): 15%
residual activity ([15]; compound 1.0 µM): 2%
residual activity ([16]; compound 0.01 µM): 3%
residual activity ([16]; compound 0.1 µM): 2%
residual activity ([16]; compound 1.0 µM): 2%
residual activity ([17]; compound 0.01 µM): 101%
residual activity ([17]; compound 0.1 µM): 98%
residual activity ([17]; compound 1.0 µM): 4%
residual activity ([18]; compound 0.01 µM): 19%
residual activity ([18]; compound 0.1 µM): 0%
residual activity ([18]; compound 1.0 µM): -1%
residual activity ([19]; compound 0.01 µM): 7%
residual activity ([19]; compound 0.1 µM): 3%
residual activity ([19]; compound 1.0 µM): 2%
residual activity ([20]; compound 0.01 µM): 10%
residual activity ([20]; compound 0.1 µM): 2%
residual activity ([20]; compound 1.0 µM): 1%
residual activity ([21]; compound 0.01 µM): 93%
residual activity ([21]; compound 0.1 µM): 12%
residual activity ([21]; compound 1.0 µM): 10%
residual activity ([22]; compound 0.01 µM): 48%
residual activity ([22]; compound 0.1 µM): 4%
residual activity ([22]; compound 1.0 µM): 1%
residual activity ([23]; compound 0.01 µM): 87%
residual activity ([23]; compound 0.1 µM): 89%
residual activity ([23]; compound 1.0 µM): 72%
residual activity ([24]; compound 0.01 µM): 71%
residual activity ([24]; compound 0.1 µM): 19%
residual activity ([24]; compound 1.0 µM): 4%
residual activity ([25]; compound 0.01 µM): 29%
residual activity ([25]; compound 0.1 µM): 2%
residual activity ([25]; compound 1.0 µM): 1%
residual activity ([26]; compound 0.01 µM): 71%
residual activity ([26]; compound 0.1 µM): 16%
residual activity ([26]; compound 1.0 µM): 1%
residual activity ([27]; compound 0.01 µM): 93%
residual activity ([27]; compound 0.1 µM): 30%
residual activity ([27]; compound 1.0 µM): 4%
residual activity ([28]; compound 0.01 µM): 17%
residual activity ([28]; compound 0.1 µM): 10%
residual activity ([28]; compound 1.0 µM): 10%
residual activity ([29]; compound 0.01 µM): 21%
residual activity ([29]; compound 0.1 µM): 8%
residual activity ([29]; compound 1.0 µM): 6%
residual activity ([30]; compound 0.01 µM): 41%
residual activity ([30]; compound 0.1 µM): 10%
residual activity ([30]; compound 1.0 µM): 2%
residual activity ([31]; compound 0.01 µM): 37%
residual activity ([31]; compound 0.1 µM): 6%
residual activity ([31]; compound 1.0 µM): 3%
residual activity ([32]; compound 0.01 µM): 89%
residual activity ([32]; compound 0.1 µM): 53%
residual activity ([32]; compound 1.0 µM): 11%
residual activity ([33]; compound 0.01 µM): 18%
residual activity ([33]; compound 0.1 µM): 16%
residual activity ([33]; compound 1.0 µM): 9%
residual activity ([34]; compound 0.01 µM): 22%
residual activity ([34]; compound 0.1 µM): 16%
residual activity ([34]; compound 1.0 µM): 12%
residual activity ([35]; compound 0.01 µM): 37%
residual activity ([35]; compound 0.1 µM): 13%
residual activity ([35]; compound 1.0 µM): 7%
residual activity ([36]; compound 0.01 µM): 76%
residual activity ([36]; compound 0.1 µM): 20%
residual activity ([36]; compound 1.0 µM): 2%

NC(=O)c1c(NC(=O)C2CC2)sc2c1CCCC2
residual activity ([1]; compound 1.0 µM): 90%
residual activity ([1]; compound 10.0 µM): 68%
residual activity ([2]; compound 1.0 µM): 89%
residual activity ([2]; compound 10.0 µM): 48%
residual activity ([3]; compound 1.0 µM): 95%
residual activity ([3]; compound 10.0 µM): 84%
residual activity ([4]; compound 10.0 µM): 106%
residual activity ([5]; compound 1.0 µM): 102%
residual activity ([5]; compound 10.0 µM): 86%
residual activity ([6]; compound 1.0 µM): 97%
residual activity ([6]; compound 10.0 µM): 90%
residual activity ([7]; compound 1.0 µM): 114%
residual activity ([7]; compound 10.0 µM): 53%
residual activity ([8]; compound 1.0 µM): 117%
residual activity ([9]; compound 1.0 µM): 101%
residual activity ([9]; compound 10.0 µM): 55%
residual activity ([10]; compound 1.0 µM): 69%
residual activity ([10]; compound 10.0 µM): 17%
residual activity ([11]; compound 1.0 µM): 100%
residual activity ([11]; compound 10.0 µM): 93%
residual activity ([12]; compound 1.0 µM): 97%
residual activity ([12]; compound 10.0 µM): 52%
residual activity ([13]; compound 1.0 µM): 92%
residual activity ([13]; compound 10.0 µM): 88%
residual activity ([14]; compound 1.0 µM): 93%
residual activity ([14]; compound 10.0 µM): 74%
residual activity ([15]; compound 1.0 µM): 106%
residual activity ([15]; compound 10.0 µM): 96%
residual activity ([16]; compound 1.0 µM): 72%
residual activity ([16]; compound 10.0 µM): 32%
residual activity ([17]; compound 1.0 µM): 106%
residual activity ([17]; compound 10.0 µM): 96%
residual activity ([18]; compound 1.0 µM): 98%
residual activity ([19]; compound 1.0 µM): 90%
residual activity ([19]; compound 10.0 µM): 69%
residual activity ([20]; compound 1.0 µM): 105%
residual activity ([20]; compound 10.0 µM): 69%
residual activity ([21]; compound 1.0 µM): 106%
residual activity ([21]; compound 10.0 µM): 115%
residual activity ([22]; compound 1.0 µM): 96%
residual activity ([22]; compound 10.0 µM): 49%
residual activity ([23]; compound 1.0 µM): 107%
residual activity ([23]; compound 10.0 µM): 93%
residual activity ([24]; compound 1.0 µM): 92%
residual activity ([24]; compound 10.0 µM): 96%
residual activity ([25]; compound 1.0 µM): 83%
residual activity ([25]; compound 10.0 µM): 80%
residual activity ([26]; compound 1.0 µM): 96%
residual activity ([26]; compound 10.0 µM): 87%
residual activity ([27]; compound 1.0 µM): 98%
residual activity ([27]; compound 10.0 µM): 92%
residual activity ([28]; compound 1.0 µM): 111%
residual activity ([28]; compound 10.0 µM): 68%
residual activity ([29]; compound 1.0 µM): 106%
residual activity ([29]; compound 10.0 µM): 97%
residual activity ([30]; compound 1.0 µM): 108%
residual activity ([30]; compound 10.0 µM): 108%
residual activity ([31]; compound 1.0 µM): 100%
residual activity ([31]; compound 10.0 µM): 98%
residual activity ([32]; compound 1.0 µM): 97%
residual activity ([32]; compound 10.0 µM): 93%
residual activity ([33]; compound 1.0 µM): 90%
residual activity ([33]; compound 10.0 µM): 53%
residual activity ([34]; compound 1.0 µM): 99%
residual activity ([34]; compound 10.0 µM): 107%
residual activity ([35]; compound 1.0 µM): 100%
residual activity ([35]; compound 10.0 µM): 80%
residual activity ([36]; compound 1.0 µM): 92%
residual activity ([36]; compound 10.0 µM): 79%
